Test [1] addresses Histamine H3 receptor (Cavia porcellus) (UniProt Q9JI35). As to the kind of experiment: Inhibition of H3-receptor mediated neurogenic contractions in the isolated guinea pig ileum assay. Format: functional, tissue-based.
Test [2] deals with T1, Histamine H3 receptor (Cavia porcellus, UniProt Q9JI35). The experiment in a line: Binding affinity towards histamine H3 receptor using [3H](R)-alpha-methylhistamine as radioligand in guinea pig cortical homogenates.
Test [3] addresses Histamine H3 receptor (Cavia porcellus) (UniProt Q9JI35). As to the kind of experiment: Compound was tested for inhibition of histamine H3-receptor mediated neurogenic contractions in the isolated guinea pig ileum assay; Full agonist. It counts as functional, tissue-based.
In test [4] the target is T1, Histamine H3 receptor. As to the kind of experiment: Binding affinity towards histamine H3 receptor using [3H](R)-alpha-methylhistamine as radioligand in guinea pig ileum LMMP homogenates. It counts as tissue-based.
Test [5] addresses Histamine H3 receptor (Cavia porcellus) (UniProt Q9JI35). As to the kind of experiment: Compound was tested for inhibition of histamine H3-receptor mediated neurogenic contractions in the isolated guinea pig ileum assay; Partial agonist. Format: functional, tissue-based.

Molecules are shown by their SMILES.

Histamine H3 receptor (Cavia porcellus), sequence (Q9JI35 whole entry): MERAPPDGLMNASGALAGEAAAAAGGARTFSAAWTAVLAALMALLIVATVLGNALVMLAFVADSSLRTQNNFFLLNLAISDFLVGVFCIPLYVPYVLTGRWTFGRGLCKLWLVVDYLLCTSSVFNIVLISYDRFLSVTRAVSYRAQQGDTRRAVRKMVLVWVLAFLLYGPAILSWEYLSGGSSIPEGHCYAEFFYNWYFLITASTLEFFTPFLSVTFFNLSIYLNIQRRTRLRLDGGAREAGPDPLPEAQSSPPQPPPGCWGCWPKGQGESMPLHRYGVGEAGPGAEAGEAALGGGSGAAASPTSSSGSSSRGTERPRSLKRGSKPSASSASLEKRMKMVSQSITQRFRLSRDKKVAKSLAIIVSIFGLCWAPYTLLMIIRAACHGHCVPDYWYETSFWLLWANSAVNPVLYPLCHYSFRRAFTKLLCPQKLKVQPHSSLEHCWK
T1 sequence (Q9JI35 whole entry): as above

As a reminder, the pKB is −log10 of the KB, conventionally taken in molar units. Broadly, the Ki is a dissociation constant, usually derived from enzyme kinetics or from competition with a known ligand. A low value points to higher affinity. The molecule `O=S(=O)(CCC1CCCCC1)NCCc1c[nH]cn1` gave a pKB in test [1] of 5.87. The molecule further gave an inhibition constant (Ki) on Histamine H3 receptor [2] of 16.2 nM.

`O=S(=O)(NCCCCCCCCCCc1c[nH]cn1)c1ccc2ccccc2c1`: the negative-log KB (pKB) in test [1] turned out to be 5.79. This molecule also had an inhibition constant (Ki) at Histamine H3 receptor [2] of 138 nM.

Take `O=S(=O)(NCCCCCc1c[nH]cn1)c1ccc2ccccc2c1`: in test [1], the pKB was found to be 6.96. The same molecule showed a Ki on Histamine H3 receptor [2] of 14.8 nM.

In the case of `C[C@@H](N)Cc1c[nH]cn1`, the p[A]50 in test [3] was 7.94. Besides, the figures for the inhibitory constant (Ki) at Histamine H3 receptor [2] and at Histamine H3 receptor [4] were 0.0851 nM and 0.151 nM, respectively.

In the case of `O=S(=O)(NCCc1c[nH]cn1)c1ccc2ccccc2c1`, the negative-log KB (pKB) in test [1] was determined as 6.7.

For `O=S(=O)(NCCCc1c[nH]cn1)c1ccc2ccccc2c1`, the negative-log KB (pKB) in test [1] is 5.93. The affinity at Histamine H3 receptor [2], expressed as Ki, was 14.1 nM.

As for `C[C@H](Cc1c[nH]cn1)NS(=O)(=O)c1ccc2ccccc2c1`, the p[A]50 in test [3] was 6.02. At Histamine H3 receptor [2], this molecule had a Ki of 1.02 nM.

In turn, `CS(=O)(=O)NCCc1c[nH]cn1` returned a negative-log KB (pKB) in test [5] of 4.77. The same molecule had a Ki at Histamine H3 receptor [4] of 186 nM.

Consider `O=S(=O)(NCCCCc1c[nH]cn1)c1ccc2ccccc2c1`, for which, in test [1], the negative logarithm of the KB (pKB) was 6.81. The molecule also gave an inhibition constant Ki at Histamine H3 receptor [2] of 22.9 nM.

As to `NCCc1c[nH]cn1` [HISTAMINE], in test [3], the p[A]50 amounted to 7.15. The inhibition constant (Ki) at Histamine H3 receptor [2] is 0.145 nM; on Histamine H3 receptor [4], 10.5 nM.

`O=S(=O)(Cc1ccccc1)NCCc1c[nH]cn1`: the negative-log KB (pKB) in test [1] is < 5.

Consider `O=S(=O)(NCCCCCCCCc1c[nH]cn1)c1ccc2ccccc2c1`, for which the pKB in test [1] was 6.62.

`O=S(=O)(NCCCCCCc1c[nH]cn1)c1ccc2ccccc2c1` had a negative logarithm of the KB (pKB) in test [1] of 7.11. This molecule also had an inhibition constant (Ki) on Histamine H3 receptor [2] of 25.1 nM.

Molecule `O=S(=O)(NCCCCCCCc1c[nH]cn1)c1ccc2ccccc2c1` yielded a pKB in test [1] of 6.88. Further, the affinity at Histamine H3 receptor [2] corresponds to a Ki of 50.1 nM.

For `O=S(=O)(Cc1ccc2ccccc2c1)NCCc1c[nH]cn1`, the pKB in test [1] is < 5. In addition, the inhibition constant Ki was 490 nM at Histamine H3 receptor [2] and 1150 nM at Histamine H3 receptor [4].

Consider `O=S(=O)(/C=C/c1ccccc1)NCCc1c[nH]cn1`, for which, in test [1], the pKB was < 5.5. This molecule also showed a Ki at Histamine H3 receptor [2] of 115 nM.

Values taken from ChEMBL document CHEMBL1132531, “From histamine to imidazolylalkyl-sulfonamides: the design of a novel series of histamine H3-receptor antagonists” (Bioorg Med Chem Lett, 1999).
